In PubChem BioAssay (NCI):
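Step 1: Grow cells in 96-well plates. Step 2: Expose to compound for 48 hours at 5 concentrations. Step 3: Interpolate endpoints linearly; if unreached, use highest concentration. TGI is the concentration that stops growth completely.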

Assays:
Experiment in all cases: NCI-60 cell line screen, 48 h
[1] = tested on: 786-0 renal
[2] = tested on: A498 renal
[3] = tested on: A549 NSCLC
[4] = tested on: ACHN renal
[5] = tested on: CAKI-1 renal
[6] = tested on: COLO 205 colon
[7] = tested on: DLD-1 colon
[8] = tested on: DMS 114 small cell lung
[9] = tested on: DMS 273 small cell lung
[10] = tested on: EKVX NSCLC
[11] = tested on: HCC-2998 colon
[12] = tested on: HCT-116 colon
[13] = tested on: HCT-15 colon
[14] = tested on: HL-60(TB) leukemia
[15] = tested on: HOP-18 NSCLC
[16] = tested on: HOP-62 NSCLC
[17] = tested on: HOP-92 NSCLC
[18] = tested on: HT29 colon
[19] = tested on: IGROV1 ovarian
[20] = tested on: K-562 leukemia
[21] = tested on: KM12 colon
[22] = tested on: KM20L2 colon
[23] = tested on: LOX IMVI melanoma
[24] = tested on: LXFL 529 NSCLC
[25] = tested on: M14 melanoma
[26] = tested on: M19-MEL melanoma
[27] = tested on: MALME-3M melanoma
[28] = tested on: MOLT-4 leukemia
[29] = tested on: NCI-H226 lung
[30] = tested on: NCI-H23 lung
[31] = tested on: NCI-H460 lung
[32] = tested on: NCI-H522 lung
[33] = tested on: OVCAR-3 ovarian
[34] = tested on: OVCAR-4 ovarian
[35] = tested on: OVCAR-5 ovarian
[36] = tested on: OVCAR-8 ovarian
[37] = tested on: RPMI-8226 leukemia
[38] = tested on: RXF 393 renal
[39] = tested on: SF-268 CNS
[40] = tested on: SF-295 CNS
[41] = tested on: SF-539 CNS
[42] = tested on: SK-MEL-28 melanoma
[43] = tested on: SK-MEL-5 melanoma
[44] = tested on: SK-OV-3 ovarian
[45] = tested on: SN12C renal
[46] = tested on: SNB-19 CNS
[47] = tested on: SNB-75 CNS
[48] = tested on: SNB-78 CNS
[49] = tested on: SR leukemia
[50] = tested on: SW-620 colon
[51] = tested on: TK-10 renal
[52] = tested on: U251 CNS
[53] = tested on: UACC-257 melanoma
[54] = tested on: UACC-62 melanoma
[55] = tested on: UO-31 renal
[56] = tested on: XF 498 CNS
[57] = tested on: CCRF-CEM leukemia
[58] = tested on: SK-MEL-2 melanoma
[59] = tested on: RXF-631 renal

Compound: Cc1cc(C)nc(NS(=O)(=O)c2ccc(Nc3c4ccccc4nc4c(C(=O)Nc5ccc(S(=O)(=O)Nc6cc(C)on6)cc5)cccc34)cc2)n1
- TGI [1]: 34.8 µM
- TGI [2]: 51.5 µM
- TGI [3]: > 100 µM
- TGI [4]: > 100 µM
- TGI [5]: 46.3 µM
- TGI [6]: 34.1 µM
- TGI [7]: 78.8 µM
- TGI [8]: 35.3 µM
- TGI [9]: 55.8 µM
- TGI [10]: 66.7 µM
- TGI [11]: 30.9 µM
- TGI [12]: 31.2 µM
- TGI [13]: > 100 µM
- TGI [14]: 61.4 µM
- TGI [15]: 53.4 µM
- TGI [16]: 44.2 µM
- TGI [17]: 39.5 µM
- TGI [18]: 35.5 µM
- TGI [19]: 77.1 µM
- TGI [20]: 80.1 µM
- TGI [21]: 35.7 µM
- TGI [22]: 44.4 µM
- TGI [23]: 37.1 µM
- TGI [24]: 33 µM
- TGI [25]: 41.7 µM
- TGI [26]: 47.2 µM
- TGI [27]: 49 µM
- TGI [28]: 64 µM
- TGI [29]: 46.5 µM
- TGI [30]: 51.1 µM
- TGI [31]: 61 µM
- TGI [32]: 29 µM
- TGI [33]: 33.3 µM
- TGI [34]: 65.5 µM
- TGI [35]: 59 µM
- TGI [36]: 39.3 µM
- TGI [37]: 56.3 µM
- TGI [38]: 38.2 µM
- TGI [39]: 58 µM
- TGI [40]: 63.1 µM
- TGI [41]: 34.7 µM
- TGI [42]: 52.3 µM
- TGI [43]: 36.3 µM
- TGI [44]: 61.7 µM
- TGI [45]: 66.5 µM
- TGI [46]: 52.1 µM
- TGI [47]: 69 µM
- TGI [48]: > 100 µM
- TGI [49]: 81.6 µM
- TGI [50]: 51.4 µM
- TGI [51]: 96 µM
- TGI [52]: 41.4 µM
- TGI [53]: 66.6 µM
- TGI [54]: 34 µM
- TGI [55]: 63.2 µM
- TGI [56]: 53.5 µM

Compound: CC1=C(C)CC2(CCCCC2=O)S(=O)C1 (configuration not stated)
- TGI [1]: > 100 µM
- TGI [2]: > 100 µM
- TGI [3]: > 100 µM
- TGI [4]: > 100 µM
- TGI [57]: > 100 µM
- TGI [6]: > 100 µM
- TGI [7]: > 100 µM
- TGI [8]: > 100 µM
- TGI [9]: > 100 µM
- TGI [10]: > 100 µM
- TGI [11]: > 100 µM
- TGI [12]: > 100 µM
- TGI [13]: > 100 µM
- TGI [14]: > 100 µM
- TGI [15]: > 100 µM
- TGI [16]: > 100 µM
- TGI [17]: > 100 µM
- TGI [18]: > 100 µM
- TGI [19]: > 100 µM
- TGI [20]: > 100 µM
- TGI [21]: > 100 µM
- TGI [22]: > 100 µM
- TGI [23]: > 100 µM
- TGI [24]: > 100 µM
- TGI [25]: > 100 µM
- TGI [26]: > 100 µM
- TGI [27]: > 100 µM
- TGI [28]: > 100 µM
- TGI [29]: > 100 µM
- TGI [30]: > 100 µM
- TGI [31]: > 100 µM
- TGI [33]: > 100 µM
- TGI [34]: > 100 µM
- TGI [35]: > 100 µM
- TGI [36]: > 100 µM
- TGI [37]: > 100 µM
- TGI [38]: > 100 µM
- TGI [39]: > 100 µM
- TGI [40]: > 100 µM
- TGI [41]: > 100 µM
- TGI [58]: > 100 µM
- TGI [42]: > 100 µM
- TGI [43]: > 100 µM
- TGI [44]: > 100 µM
- TGI [45]: > 100 µM
- TGI [46]: > 100 µM
- TGI [47]: > 100 µM
- TGI [48]: > 100 µM
- TGI [49]: > 100 µM
- TGI [50]: > 100 µM
- TGI [51]: > 100 µM
- TGI [52]: > 100 µM
- TGI [53]: > 100 µM
- TGI [54]: > 100 µM
- TGI [55]: > 100 µM
- TGI [56]: > 100 µM

Compound: CCOC(=O)C(Cc1ccc2ccccc2c1)(Cc1ccc2ccccc2c1)C(C)=O
- TGI [1]: > 10 µM
- TGI [3]: > 10 µM
- TGI [4]: > 10 µM
- TGI [57]: > 10 µM
- TGI [6]: > 10 µM
- TGI [7]: > 10 µM
- TGI [9]: > 10 µM
- TGI [11]: 8.51 µM
- TGI [13]: > 10 µM
- TGI [16]: > 10 µM
- TGI [17]: > 10 µM
- TGI [19]: > 10 µM
- TGI [20]: > 10 µM
- TGI [22]: > 10 µM
- TGI [23]: > 10 µM
- TGI [24]: > 10 µM
- TGI [25]: > 10 µM
- TGI [26]: > 10 µM
- TGI [27]: > 10 µM
- TGI [28]: 8.61 µM
- TGI [31]: > 10 µM
- TGI [34]: > 10 µM
- TGI [37]: 6.58 µM
- TGI [44]: > 10 µM
- TGI [45]: > 10 µM
- TGI [48]: > 10 µM
- TGI [50]: > 10 µM
- TGI [52]: > 10 µM
- TGI [54]: > 10 µM
- TGI [56]: > 10 µM

Compound: C=CCCCCCCCCC(=O)NS(=O)(=O)c1ccccc1
- TGI [1]: > 100 µM
- TGI [2]: > 100 µM
- TGI [3]: > 100 µM
- TGI [4]: > 100 µM
- TGI [5]: > 100 µM
- TGI [6]: > 100 µM
- TGI [7]: > 100 µM
- TGI [8]: > 100 µM
- TGI [9]: > 100 µM
- TGI [10]: > 100 µM
- TGI [11]: > 100 µM
- TGI [12]: > 100 µM
- TGI [14]: > 100 µM
- TGI [15]: > 100 µM
- TGI [16]: > 100 µM
- TGI [17]: > 100 µM
- TGI [18]: > 100 µM
- TGI [19]: > 100 µM
- TGI [20]: > 100 µM
- TGI [21]: > 100 µM
- TGI [22]: > 100 µM
- TGI [23]: > 100 µM
- TGI [24]: > 100 µM
- TGI [25]: > 100 µM
- TGI [26]: > 100 µM
- TGI [27]: > 100 µM
- TGI [28]: > 100 µM
- TGI [29]: > 100 µM
- TGI [30]: > 100 µM
- TGI [31]: > 100 µM
- TGI [32]: > 100 µM
- TGI [33]: > 100 µM
- TGI [34]: > 100 µM
- TGI [35]: > 100 µM
- TGI [36]: > 100 µM
- TGI [37]: > 100 µM
- TGI [38]: > 100 µM
- TGI [59]: > 100 µM
- TGI [39]: > 100 µM
- TGI [40]: > 100 µM
- TGI [41]: > 100 µM
- TGI [58]: > 100 µM
- TGI [42]: > 100 µM
- TGI [44]: > 100 µM
- TGI [45]: > 100 µM
- TGI [46]: > 100 µM
- TGI [47]: > 100 µM
- TGI [48]: > 100 µM
- TGI [50]: > 100 µM
- TGI [51]: > 100 µM
- TGI [52]: > 100 µM
- TGI [53]: > 100 µM
- TGI [54]: > 100 µM
- TGI [55]: > 100 µM
- TGI [56]: > 100 µM
